Laboratory results taken from patent US10350206B2, “Benzyl substituted indazoles as BUB1 inhibitors” (Bayer Pharma Aktiengesellschaft, priority 2014, dated 2019).

Experiments:
[1] = test system: HeLa human cervical tumor cells; experiment: Proliferation assay (HeLa cell line); type: cell-based; conditions: 96 h, 4 days incubation, crystal violet, read-out: Biological Assay 2: Proliferation assay (HeLa cell line) median IC50
Description: Human tumour cells were originally obtained from the American Type Culture Collection (ATCC), the Deutsche Sammlung von Mikroorganismen und Zellkulturen (DSMZ, German Collection of Microorganisms and Cell Cultures), or Epo GmbH Berlin. Cultivated HeLa human cervical tumor cells (DSMZ ACC-57) were plated at a density of 3000 cells/well in a 96-well multititer plate in 200 μL of growth medium supplemented 10% fetal calf serum. After 24 hours, the cells of one plate (zero-point plate) were stained with crystal violet (see below), while the medium of the other plates was supplemented with the test substances in various concentrations (0 μM, as well as in the range of 0.001-10 μM; the final concentration of the solvent dimethyl sulfoxide was adjusted to 0.1%) using a Hewlett-Packard HP D300 Digital Dispenser. The cells were incubated for 4 days in the presence of test substances. […] After three washing cycles of the fixed cells with water, the plates were dried at room temperature. The cells were stained by adding 100 μL/measuring point of a 0.1% crystal violet solution (pH 3.0). After three washing cycles of the stained cells with water, the plates were dried at room temperature. The dye was dissolved by adding 100 μL/measuring point of a 10% acetic acid solution. […] The change of cell number, in percent, was calculated by normalization of the measured values to the absorption values of the zero-point plate (=0%) and the absorption of the untreated (0 μm) cells (=100%). The IC50 values were determined by means of a 4 parameter fit.

[2] = test system: Bub1 kinase (histone 2A phosphorylation); experiment: H2A Formation-Assay (cell-based mechanistic assay, co-treatment with Nocodazole); conditions: 16 h, Nocodazole 1 μg/ml together with test compound for 16 h; read-out: Biological Assay 4.1: H2A Formation IC50
Description: Biological Assay 4.1: Formation-Assay
Cell-Based Mechanistic Assay: Changes of Phosphorylation Status of Histone 2A by Inhibition of Kinase Activity of Bub1
This assay determines the suppression of histone 2A phosphorylation by a Bub1 kinase inhibitor during co-treatment with Nocodazole. 25000 cells (cells were ordered from ATCC) were seeded in 96 well plate for 5 h at 37° C. Cells were treated with Nocodazole (1 μg/ml) and varying concentrations (between 3 nM and 10 μM) of test compounds for 16h. Cells were fixed (20 min, Fixing solution R&D), washed three times with PBS and blocked with Odyssey blocking buffer before incubating with the primary antibody against phosphorylated H2A (5 μg/ml ABIN482721) overnight at […]. After washing, secondary IRDye-labeled antibody mix with cell stains was added for 1h and washed again with PBS. Plates were scanned with LiCor Odyssey Infrared Imager CLx at 800 nm for P-H2A and at 700 nm for cell stains Draq5/Sapphire. The quotient of 800 nm and 700 nm for Nocodazole only treated cells was set as 100% and the quotient of 800 nm and 700 nm of untreated cells was set as 0%. […] The IC50 values were determined by means of a 4 parameter fit.
(§1) Histone H2A is an immediate intracellular substrate of Bub1 kinase. Determination of the phosphorylation status of Histone H2A provides a direct measure of the intracellular activity of Bub1 kinase.

[3] = test system: HeLa human cervical tumor cells; experiment: Proliferation Assay (HeLa+Paclitaxel); type: cell-based; conditions: 3 nM paclitaxel, test substance 92 hours; read-out: Biological Assay 3: Proliferation Assay (HeLa + Paclitaxel) IC50
Description: Proliferation Assay (HeLa+Paclitaxel):
Cultivated HeLa human cervical tumor cells (DSMZ ACC-57) were plated at a density of 3000 cells/well in a 96-well multititer plate in 200 μL of growth medium supplemented 10% fetal calf serum. After 24 hours, the cells of one plate (zero-point plate) were stained with crystal violet (see below). The medium of the other plates was supplemented with 3 nM of paclitaxel (Sigma-Aldrich) and the cells were incubated at 37° C. After 4 hours the test substances were added in various concentrations (0 μM, as well as in the range of 0.001-10 μM; the final concentration of the solvent dimethyl sulfoxide was adjusted to 0.1%) using a Hewlett-Packard HP D300 Digital Dispenser. The cells were incubated for another 92 hours at 37° C. in the presence of test substances. […] After three washing cycles of the fixed cells with water, the plates were dried at room temperature. The cells were stained by adding 100 μL/measuring point of a 0.1% crystal violet solution (pH 3.0). After three washing cycles of the stained cells with water, the plates were dried at room temperature. The dye was dissolved by adding 100 μL/measuring point of a 10% acetic acid solution. […] The change of cell number, in percent, was calculated by normalization of the measured values to the absorption values of the zero-point plate (=0%) and the 5 absorption of the untreated (0 μm) cells (=100%). The IC50 values were determined by means of a 4 parameter fit.

[4] = molecular target: T1, catalytic domain of human Bub1 (amino acids 704-1085) (Homo sapiens, UniProt O43683); experiment: Bub1 kinase assay (TR-FRET); type: biochemical; conditions: 10 μM ATP, 60 min reaction, pH 7.5; read-out: Biological Assay 1: Bub1 kinase assay median IC50
T1 construct: catalytic domain of human Bub1 (amino acids 704-1085); His6 (N); made in house; host or cells: Hi5 insect cells
Description: To this end, 100-fold concentrated compound solutions (in DMSO) were previously prepared by serial dilution (1:3.4) of 2 mM stocks in a clear low volume 384-well source microtiter plate (Greiner Bio-One, Frickenhausen, Germany), from which 50 nL of compounds were transferred into a black low volume test microtiter plate from the same supplier. […] The resulting mixture (5 μL final volume) was incubated at 22° during 60 min., and the reaction was stopped by the addition of 5 μL of an aqueous EDTA-solution (50 mM EDTA, in 100 mM HEPES pH 7.5 and 0.2% (w/v) bovine serum albumin) which also contained the TR-FRET detection reagents (0.2 μM streptavidin-XL665 [Cisbio Bioassays, Codolet, France] and 1 nM anti-phosho-Serine antibody [Merck Millipore, cat. #35-001] and 0.4 nM LANCE EU-W1024 labeled anti-mouse IgG antibody [Perkin-Elmer, product no. AD0077, alternatively a Terbium-cryptate-labeled anti-mouse IgG antibody from Cisbio Bioassays can be used]). The stopped reaction mixture was further incubated 1 h at 22° C. in order to allow the formation of complexes between peptides and detection reagents. Subsequently, the amount of product was evaluated by measurement of the resonance energy transfer from the Eu-chelate-antibody complex recognizing the Phosphoserine residue to the streptavidin-XL665 bound to the biotin moiety of the peptide. […] IC50 values were calculated by fitting the normalized inhibition data to a 4-parameter logistic equation (Minimum, Maximum, IC50, Hill; Y=Max+(Min−Max)/(1+(X/IC50)Hill)).

[5] = test system: Bub1 kinase (pre-induced phospho-histone 2A); experiment: H2A Abrogation-Assay (cell-based mechanistic assay, pre-treatment with Nocodazole); conditions: Nocodazole 1 μg/ml 16 h, then test compound 1 h; read-out: Biological Assay 4.2: H2A Abrogation IC50
Description: Biological Assay 4.2: Abrogation-Assay
Cell-Based Mechanistic Assay: Changes of Phosphorylation Status of Pre-Induced Phospho-Histone 2A by Inhibition of Kinase Activity of Bub1
This assay measures the inhibition of histone 2A phosphorylation, which was induced by pre-treatment of the cells with Nocodazole, by a Bub1 kinase inhibitor. 25000 cells (cells were ordered from ATCC) were seeded in 96 well plate for 5 h at 37° C. Cells were treated with Nocodazole (1 μg/ml). After 16h varying concentrations (between 3 nM and 10 μM) of test compounds were added and the cells were incubated for another 1h. Cells were fixed (20 min, Fixing solution R&D), washed three times with PBS and blocked with Odyssey blocking buffer before incubating with the primary antibody against phosphorylated H2A (5 μg/ml ABIN482721) overnight at 2-8° C. After washing, secondary IRDye-labeled antibody mix with cell stains was added for 1h and washed again with PBS. Plates were scanned with LiCor Odyssey Infrared Imager CLx at 800 nm for P-H2A and at 700 nm for cell stains Draq5/Sapphire. The quotient of 800 nm and 700 nm for Nocodazole only treated cells was set as 100% and the quotient of 800 nm and 700 nm of untreated cells was set as 0%. […] The IC50 values were determined by means of a 4 parameter fit.
as §1

T1 sequence (O43683 704-1085): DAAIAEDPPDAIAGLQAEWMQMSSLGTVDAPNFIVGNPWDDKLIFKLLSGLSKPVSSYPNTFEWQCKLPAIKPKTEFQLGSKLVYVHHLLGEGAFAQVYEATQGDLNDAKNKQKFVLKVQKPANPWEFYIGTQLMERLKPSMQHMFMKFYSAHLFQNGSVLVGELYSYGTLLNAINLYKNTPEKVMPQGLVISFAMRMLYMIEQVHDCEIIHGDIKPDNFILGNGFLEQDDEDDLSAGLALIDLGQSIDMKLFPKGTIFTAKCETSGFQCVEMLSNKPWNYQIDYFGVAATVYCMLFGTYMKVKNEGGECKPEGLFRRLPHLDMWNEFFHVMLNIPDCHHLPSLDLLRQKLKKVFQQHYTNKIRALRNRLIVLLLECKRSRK

| Structure (SMILES) | IC50 [1] | IC50 [2] | IC50 [3] | IC50 [4] | IC50 [5] |
| --- | --- | --- | --- | --- | --- |
| COc1cnc(-c2nn(Cc3c(F)cc(OCCO)cc3F)c3ccccc23)nc1Nc1ccncc1F [Example 2-1-6, 2-{3,5-difluoro-4-[(3-{4-[(3-fluoropyridin-4-yl)amino]-5-methoxypyrimidin-2-yl}-1H-indazol-1-yl)methyl]phenoxy}ethanol] | 8500 nM | 56 nM | 370 nM | 7.7 nM | 890 nM |
| COc1cnc(-c2nn(Cc3c(F)cc(OCCO)cc3F)c3ccccc23)nc1Nc1ccnc(F)c1 [Example 2-1-11, 2-{3,5-difluoro-4-[(3-{4-[(2-fluoropyridin-4-yl)amino]-5-methoxypyrimidin-2-yl}-1H-indazol-1-yl)methyl]phenoxy}ethanol] | 5100 nM | 4.9 nM | 110 nM | 19 nM | 5.2 nM |
| COc1cnc(-c2nn(Cc3c(F)cc(OCCO)cc3F)c3ccccc23)nc1Nc1cc(C)ncc1F [Example 2-1-12, 2-{3,5-difluoro-4-[(3-{4-[(5-fluoro-2-methylpyridin-4-yl)amino]-5-methoxypyrimidin-2-yl}-1H-indazol-1-yl)methyl]phenoxy}ethanol] | > 10000 nM | 6 nM | 420 nM | 33 nM | 11 nM |
| COc1cnc(-c2nn(Cc3c(F)cc(OCCO)cc3F)c3ccccc23)nc1Nc1ccncn1 [Example 2-1-13, 2-[3,5-difluoro-4-({3-[5-methoxy-4-(pyrimidin-4-ylamino)pyrimidin-2-yl]-1H-indazol-1-yl}methyl)phenoxy]ethanol] | > 10000 nM | 18 nM | 510 nM | 5 nM | 2.7 nM |
| COc1cnc(-c2nn(Cc3c(F)cc(OCCO)cc3F)c3ccccc23)nc1Nc1cc(NC(C)=O)ncc1C [Example 2-1-14, N-{4-[(2-{1-[2,6-difluoro-4-(2-hydroxyethoxy)benzyl]-1H-indazol-3-yl}-5-methoxypyrimidin-4-yl)amino]-5-methylpyridin-2-yl}acetamide] | 1500 nM | 39 nM | 1100 nM | 420 nM | 11 nM |
| COc1cnc(-c2nn(Cc3c(F)cc(OCCO)cc3F)c3ccccc23)nc1Nc1ccnc(NC(=O)C2CC2)c1 [Example 2-1-15, N-{4-[(2-{1-[2,6-difluoro-4-(2-hydroxyethoxy)benzyl]-1H-indazol-3-yl}-5-methoxy-pyrimidin-4-yl)amino]pyridin-2-yl}cyclopropanecarboxamide] | > 10000 nM | 24 nM | 360 nM | 9.8 nM | 1.2 nM |
| COc1cnc(-c2nn(Cc3c(F)cc(OCCO)cc3F)c3ccccc23)nc1Nc1ccnc(NC(=O)NC2CC2)c1 [Example 2-1-16, 1-cyclopropyl-3-{4-[(2-{1-[2,6-difluoro-4-(2-hydroxyethoxy)benzyl]-1H-indazol-3-yl}-5-methoxypyrimidin-4-yl)amino]pyridin-2-yl}urea] | 3100 nM | 87 nM | 300 nM | 17 nM | 74 nM |
| COc1cnc(-c2nn(Cc3c(F)cc(OCCO)cc3F)c3ccccc23)nc1Nc1ccnc(C)c1OC [Example 2-1-18, 2-{3,5-difluoro-4-[(3-{5-methoxy-4-[(3-methoxy-2-methylpyridin-4-yl)amino]pyrimidin-2-yl}-1H-indazol-1-yl)methyl]phenoxy}ethanol] | 1400 nM | 35 nM | 51 nM | 14 nM | 2.1 nM |
| COc1cnc(-c2nn(Cc3c(F)cc(OCCCO)cc3F)c3ccccc23)nc1Nc1cc(C)ncc1C [Example 2-3-1, 3-{4-[(3-{4-[(2,5-dimethylpyridin-4-yl)amino]-5-methoxypyrimidin-2-yl}-1 H-indazol-1-yl)methyl]-3,5-difluorophenoxy}propan-1-ol] | > 10000 nM | 38 nM | 72 nM | 15 nM | 0.72 nM |
| COc1cnc(-c2nn(Cc3c(F)cc(OCCCO)cc3F)c3ccccc23)nc1Nc1ccnc(C)n1 [Example 2-3-3, 3-{3,5-difluoro-4-[(3-{5-methoxy-4-[(2-methylpyrimidin-4-yl)amino]pyrimidin-2-yl}-1H-indazol-1-yl)methyl]phenoxy}propan-1-ol] | > 10000 nM | 210 nM | 200 nM | 55 nM | 310 nM |
